Experimental data from publication PMC4674085, “Towards Prebiotic Catalytic Amyloids Using High Throughput Screening” (PLoS ONE, 2015).

How the values were obtained:
[1] = NMR-based 4NPA hydrolysis assay at pH 4.3; type: biochemical; conditions: 4NPA hydrolysis by 1D-1H NMR, 50 mM d3-NaOAc pH 4.3, 2% d6-DMSO, 40 μM total purified peptide (mixture 20 μM each), 0.9 mM 4NPA, 25°C, over 15 days, first order fit, no zinc(II)
Description: Purified peptides were solubilized in deuterated DMSO with 1% TFA at a concentration of 4 mM and subsequently diluted to 160 μM in 50 mM deuterated NaOAc buffer at pH 4.3. In the case of the peptide mixture fibrillization (12/21), each peptide was 80 μM. Fibrillization occurred over 5 days after which the sample was diluted to 40 μM total peptide in 50 mM buffer with 0.9 mM 4NPA (from a 90 mM stock solution in d6-DMSO) and a final concentration of d6-DMSO of 2%. From this reaction mixture 500 μl was transferred to a 5 mm NMR tube and measurements were performed in a 600 MHz Bruker NMR spectrometer equipped with a cryo-probe.
The hydrolysis kinetics were monitored in a continuous series of 1D-^1H experiments each consisting of 32 scans at 25°C and each requiring 17 min. In this manner, several time segments lasting between 8 and 17 hours were collected over a period of 15 days. Between measurements, the samples were kept at 25°C.
Data processing and peak integration was performed with Topspin3.2 (Bruker). Relevant peaks used for the analysis were the 4 aromatic protons of both 4NPA and of its product (p-nitrophenol) as well as the methyl groups of 4NPA and acetic acid. The ratio of the sum of integrals for the product protons to the sum of integrals for all protons was used to calculate the substrate concentration. […]

[2] = Aggregation at pH 4 from soluble material left after 100,000 g centrifugation; type: physicochemical; conditions: 40 μM purified peptide, pH 4, soluble material in supernatant of 100,000 g centrifugation

aggregation behaviour at pH 4 [2]: remained soluble for several days
Substance: Ac-YVHVHVDV-NH2 [Peptide 21, Ac-YVHVHVDV-CONH2]
k cat/K M [1]: 1598±20 10^-6M^-1s^-1
